Results reported in the OligoGym collection.
Oligonucleotides are given in HELM: sugar(base)linkage, 5' to 3'; d 2'-deoxyribose, r ribose, m 2'-O-methylribose, p phosphate. ss, as = sense and antisense strand

The substances below were run against TMEM63B (assay: reporter assay of Huesken 2005). Conditions: siRNA.
Note: test concentration or dose not given here.

Substance	normalised inhibition (eCFP-eYFP dual reporter)
RNA1{r(A)p.r(A)p.r(C)p.r(C)p.r(A)p.r(C)p.r(C)p.r(A)p.r(U)p.r(U)p.r(G)p.r(C)p.r(C)p.r(A)p.r(A)p.r(C)p.r(U)p.r(U)p.r(G)p.d(T)p.d(T)}|RNA2{r(C)p.r(A)p.r(A)p.r(G)p.r(U)p.r(U)p.r(G)p.r(G)p.r(C)p.r(A)p.r(A)p.r(U)p.r(G)p.r(G)p.r(U)p.r(G)p.r(G)p.r(U)p.r(U)p.d(C)p.d(T)}$$$RNA1{StrandType:ss}|RNA2{StrandType:as}$	34.2%
RNA1{r(A)p.r(A)p.r(C)p.r(G)p.r(C)p.r(C)p.r(A)p.r(U)p.r(G)p.r(G)p.r(A)p.r(C)p.r(C)p.r(U)p.r(G)p.r(C)p.r(U)p.r(G)p.r(C)p.d(T)p.d(T)}|RNA2{r(G)p.r(C)p.r(A)p.r(G)p.r(C)p.r(A)p.r(G)p.r(G)p.r(U)p.r(C)p.r(C)p.r(A)p.r(U)p.r(G)p.r(G)p.r(C)p.r(G)p.r(U)p.r(U)p.d(G)p.d(C)}$$$RNA1{StrandType:ss}|RNA2{StrandType:as}$	27.2%
RNA1{r(A)p.r(A)p.r(C)p.r(G)p.r(U)p.r(G)p.r(C)p.r(C)p.r(U)p.r(A)p.r(C)p.r(C)p.r(A)p.r(U)p.r(G)p.r(A)p.r(U)p.r(C)p.r(A)p.d(T)p.d(T)}|RNA2{r(U)p.r(G)p.r(A)p.r(U)p.r(C)p.r(A)p.r(U)p.r(G)p.r(G)p.r(U)p.r(A)p.r(G)p.r(G)p.r(C)p.r(A)p.r(C)p.r(G)p.r(U)p.r(U)p.d(C)p.d(T)}$$$RNA1{StrandType:ss}|RNA2{StrandType:as}$	80.1%
RNA1{r(A)p.r(A)p.r(G)p.r(A)p.r(U)p.r(C)p.r(A)p.r(A)p.r(G)p.r(A)p.r(A)p.r(G)p.r(C)p.r(A)p.r(U)p.r(U)p.r(U)p.r(U)p.r(G)p.d(T)p.d(T)}|RNA2{r(C)p.r(A)p.r(A)p.r(A)p.r(A)p.r(U)p.r(G)p.r(C)p.r(U)p.r(U)p.r(C)p.r(U)p.r(U)p.r(G)p.r(A)p.r(U)p.r(C)p.r(U)p.r(U)p.d(T)p.d(T)}$$$RNA1{StrandType:ss}|RNA2{StrandType:as}$	61.7%

Each substance was assayed against Mmp7 (rat) (assay: reporter assay of Huesken 2005). Conditions: siRNA.

Substance	normalised inhibition (eCFP-eYFP dual reporter)
RNA1{r(U)p.r(G)p.r(G)p.r(G)p.r(A)p.r(A)p.r(C)p.r(A)p.r(G)p.r(G)p.r(C)p.r(G)p.r(C)p.r(A)p.r(G)p.r(A)p.r(A)p.r(U)p.r(U)p.d(T)p.d(T)}|RNA2{r(A)p.r(A)p.r(U)p.r(U)p.r(C)p.r(U)p.r(G)p.r(C)p.r(G)p.r(C)p.r(C)p.r(U)p.r(G)p.r(U)p.r(U)p.r(C)p.r(C)p.r(C)p.r(A)p.d(C)p.d(T)}$$$RNA1{StrandType:ss}|RNA2{StrandType:as}$	46.8%
RNA1{r(U)p.r(G)p.r(G)p.r(U)p.r(G)p.r(A)p.r(G)p.r(G)p.r(A)p.r(C)p.r(U)p.r(C)p.r(A)p.r(G)p.r(G)p.r(C)p.r(G)p.r(U)p.r(G)p.d(T)p.d(T)}|RNA2{r(C)p.r(A)p.r(C)p.r(G)p.r(C)p.r(C)p.r(U)p.r(G)p.r(A)p.r(G)p.r(U)p.r(C)p.r(C)p.r(U)p.r(C)p.r(A)p.r(C)p.r(C)p.r(A)p.d(T)p.d(C)}$$$RNA1{StrandType:ss}|RNA2{StrandType:as}$	69.8%
RNA1{r(U)p.r(G)p.r(U)p.r(G)p.r(A)p.r(U)p.r(G)p.r(U)p.r(A)p.r(C)p.r(C)p.r(C)p.r(U)p.r(A)p.r(C)p.r(C)p.r(U)p.r(A)p.r(U)p.d(T)p.d(T)}|RNA2{r(A)p.r(U)p.r(A)p.r(G)p.r(G)p.r(U)p.r(A)p.r(G)p.r(G)p.r(G)p.r(U)p.r(A)p.r(C)p.r(A)p.r(U)p.r(C)p.r(A)p.r(C)p.r(A)p.d(G)p.d(A)}$$$RNA1{StrandType:ss}|RNA2{StrandType:as}$	107%
RNA1{r(U)p.r(G)p.r(U)p.r(U)p.r(U)p.r(G)p.r(U)p.r(U)p.r(G)p.r(C)p.r(C)p.r(A)p.r(C)p.r(U)p.r(C)p.r(A)p.r(U)p.r(G)p.r(A)p.d(T)p.d(T)}|RNA2{r(U)p.r(C)p.r(A)p.r(U)p.r(G)p.r(A)p.r(G)p.r(U)p.r(G)p.r(G)p.r(C)p.r(A)p.r(A)p.r(C)p.r(A)p.r(A)p.r(A)p.r(C)p.r(A)p.d(G)p.d(G)}$$$RNA1{StrandType:ss}|RNA2{StrandType:as}$	105%
RNA1{r(U)p.r(U)p.r(A)p.r(C)p.r(C)p.r(U)p.r(U)p.r(C)p.r(A)p.r(C)p.r(G)p.r(A)p.r(C)p.r(U)p.r(C)p.r(U)p.r(A)p.r(A)p.r(A)p.d(T)p.d(T)}|RNA2{r(U)p.r(U)p.r(U)p.r(A)p.r(G)p.r(A)p.r(G)p.r(U)p.r(C)p.r(G)p.r(U)p.r(G)p.r(A)p.r(A)p.r(G)p.r(G)p.r(U)p.r(A)p.r(A)p.d(A)p.d(A)}$$$RNA1{StrandType:ss}|RNA2{StrandType:as}$	131%
RNA1{r(U)p.r(U)p.r(C)p.r(A)p.r(G)p.r(A)p.r(A)p.r(G)p.r(A)p.r(C)p.r(U)p.r(U)p.r(C)p.r(A)p.r(G)p.r(U)p.r(C)p.r(U)p.r(U)p.d(T)p.d(T)}|RNA2{r(A)p.r(A)p.r(G)p.r(A)p.r(C)p.r(U)p.r(G)p.r(A)p.r(A)p.r(G)p.r(U)p.r(C)p.r(U)p.r(U)p.r(C)p.r(U)p.r(G)p.r(A)p.r(A)p.d(T)p.d(G)}$$$RNA1{StrandType:ss}|RNA2{StrandType:as}$	92.5%
RNA1{r(U)p.r(U)p.r(C)p.r(C)p.r(U)p.r(G)p.r(U)p.r(U)p.r(U)p.r(G)p.r(U)p.r(U)p.r(G)p.r(C)p.r(C)p.r(A)p.r(C)p.r(U)p.r(C)p.d(T)p.d(T)}|RNA2{r(G)p.r(A)p.r(G)p.r(U)p.r(G)p.r(G)p.r(C)p.r(A)p.r(A)p.r(C)p.r(A)p.r(A)p.r(A)p.r(C)p.r(A)p.r(G)p.r(G)p.r(A)p.r(A)p.d(G)p.d(T)}$$$RNA1{StrandType:ss}|RNA2{StrandType:as}$	37.6%
RNA1{r(U)p.r(U)p.r(C)p.r(G)p.r(C)p.r(A)p.r(A)p.r(G)p.r(G)p.r(G)p.r(G)p.r(A)p.r(G)p.r(A)p.r(U)p.r(C)p.r(A)p.r(C)p.r(G)p.d(T)p.d(T)}|RNA2{r(C)p.r(G)p.r(U)p.r(G)p.r(A)p.r(U)p.r(C)p.r(U)p.r(C)p.r(C)p.r(C)p.r(C)p.r(U)p.r(U)p.r(G)p.r(C)p.r(G)p.r(A)p.r(A)p.d(G)p.d(C)}$$$RNA1{StrandType:ss}|RNA2{StrandType:as}$	26.8%
RNA1{r(U)p.r(U)p.r(G)p.r(C)p.r(C)p.r(G)p.r(G)p.r(A)p.r(G)p.r(A)p.r(C)p.r(U)p.r(G)p.r(G)p.r(A)p.r(A)p.r(A)p.r(G)p.r(C)p.d(T)p.d(T)}|RNA2{r(G)p.r(C)p.r(U)p.r(U)p.r(U)p.r(C)p.r(C)p.r(A)p.r(G)p.r(U)p.r(C)p.r(U)p.r(C)p.r(C)p.r(G)p.r(G)p.r(C)p.r(A)p.r(A)p.d(A)p.d(C)}$$$RNA1{StrandType:ss}|RNA2{StrandType:as}$	1.9%
RNA1{r(U)p.r(U)p.r(U)p.r(A)p.r(C)p.r(C)p.r(U)p.r(U)p.r(C)p.r(A)p.r(C)p.r(G)p.r(A)p.r(C)p.r(U)p.r(C)p.r(U)p.r(A)p.r(A)p.d(T)p.d(T)}|RNA2{r(U)p.r(U)p.r(A)p.r(G)p.r(A)p.r(G)p.r(U)p.r(C)p.r(G)p.r(U)p.r(G)p.r(A)p.r(A)p.r(G)p.r(G)p.r(U)p.r(A)p.r(A)p.r(A)p.d(A)p.d(T)}$$$RNA1{StrandType:ss}|RNA2{StrandType:as}$	110%
